# According to US20090203750A1, “5-HT2C Receptor Agonists as Anorectic Agents” (priority 2005, published 2009):
# Molecular target: T1, human 5-HT2A receptor (Homo sapiens, UniProt P28223)
# T1 construct: expressed in transfected cells; host or cells: HEK-293
# Assay: Functional activity by Ca++-flux (intracellular calcium mobilization), 5-HT2A
# Assay type: cell-based
# Details: Ca++-flux, HEK-293 cells; NA = not active
# Protocol: The functional activity of the compounds for the human 5-HT2A, human 5-HT2B, and human 5-HT2C receptors is determined by measurement of Ca++-flux as detailed in the Examples, in transiently transfected HEK-293 cells and the results are summarized in Table I. Structures of compounds listed in Table I are given in Scheme 15.
# (§1) The functional activity of compounds for the human 5-HT2A, human 5-HT2B, and human 5-HT2C receptors as agonists, partial agonists and antagonists is determined by measurement of Ca++-flux. The results are summarized in Table 1 where EC50 for different receptors are given (nM) and the ratio of activities 2A/2C and 2B/2C are also given. As noted above, other methods for assessing agonist/antagonist function of compounds for 5-HT2 family receptors are known in the art.
# (§2) For these studies stably expressing lines of h5-HT2A, h5-HT2B, and h5-HT2C receptors are prepared in HEK-293 cells. For the h5-HT2A and h5-HT2C-INI receptors, stably expressing HEK-293 cell lines were constructed as previously described using a pIRES-NEO vector system (See: Rauser et al, J Pharmacol Exp Ther 299: 83-89, 2001).
# (§3) Stable cell lines were plated with ˜40,000 cells/well into uncoated (3T3 cells) or poly-L-lysine coated (HEK293 cells) 96-well plates in DMEM supplemented with 5% dialyzed FBS. 16-24 hrs post-plating, the medium was aspirated and replaced with 30 μl/well of Calcium Assay Kit Component A Dye (Molecular Devices; Sunnyvale, Calif.) dissolved in 30 ml/bottle of assay buffer (2.5 mM probenecid, 20 mM Hepes, and 1× Hanks' Balanced Salt Solution (Invitrogen; Carlsbad, Calif.) (138 mM NaCl, 5.3 mM KCl, 1.3 mM CaCl2, 0.49 mM MgCl2, 0.41 mM MgSO4, 0.44 mM KH2PO4, 0.34 mM Na2HPO4) pH 7.4. Plates were incubated in the dye for 1 hr at 37° C. Dilutions were made in assay buffer as 2× stocks and added to 96-well drug plates. Fluorometric imaging was performed using a FlexStation II plate reader (Molecular Devices) reading the plate at 1.5 second intervals for 1 min. After establishing a fluorescent baseline (excitation at 485 nm and emission at 525 nm, using a […] cutoff), the FlexStation II automatically transferred 30 μl of 2× drug stocks from the drug plate to the cell plate at the 20 second time point with reading for another 40 seconds. Peak relative fluorescence units (RFU) were subtracted from baseline RFUs using SoftMax Pro (Molecular Devices) and values were imported into GraphPad Prism version 4.03 (GraphPad Software; San Diego, Calif.) for analysis. Ca++-flux studies are very convenient for initial screening of large numbers of compounds for agonist activity.
# Compounds are resuspended in DMSO at a stock concentration of 2-15 mM and, for a typical agonist screen, are diluted in assay buffer to a final 2× concentration of 20 μM into drugs plates. Compounds are added in duplicate to cell plates using the FlexStation II as described to identify agonists, defined as having >10% of maximal 5-HT response. […] Generally, screens are performed twice with each determination being made in duplicate. Typical Z′-factor (Zhang et al., 1999) values for agonist screens ranged from 0.61-0.79 (5-HT2AR), 0.42-0.81 (5-HT2BR) and 0.38-0.72 (5-HT2CR); these Z′-factor values are adequate for screening studies in which N=2 determinations are made and the screens replicated for a total of N=4 determinations.
# (§4) Compounds identified by primary screens to be agonists are subsequently used in concentration-response experiments to verify the initial observations and obtain agonist potencies. Concentration-response studies are performed in triplicate or quadruplicate at each concentration and repeated three times. Baseline-subtracted RFU values imported into GraphPad Prism are analyzed by non-linear regression to obtain pEC50 values, and normalized to maximal 5-HT response to obtain relative efficacies.
# T1 sequence (P28223 whole entry): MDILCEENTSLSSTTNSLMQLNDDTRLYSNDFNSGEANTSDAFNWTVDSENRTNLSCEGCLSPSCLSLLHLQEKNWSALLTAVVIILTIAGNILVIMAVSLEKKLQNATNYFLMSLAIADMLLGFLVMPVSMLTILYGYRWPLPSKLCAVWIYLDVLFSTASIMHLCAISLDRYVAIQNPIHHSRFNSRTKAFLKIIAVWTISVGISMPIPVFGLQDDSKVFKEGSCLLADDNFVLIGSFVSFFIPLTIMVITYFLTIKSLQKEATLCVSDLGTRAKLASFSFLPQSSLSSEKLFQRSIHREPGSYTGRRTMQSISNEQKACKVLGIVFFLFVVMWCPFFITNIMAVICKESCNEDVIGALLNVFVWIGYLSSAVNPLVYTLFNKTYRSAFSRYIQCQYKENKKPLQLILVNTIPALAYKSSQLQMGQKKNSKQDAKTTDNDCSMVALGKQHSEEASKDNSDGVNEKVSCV
row,Molecule,EC50 [nM]
1,trans-(±)-[2-(3-Bromo-phenyl)-cyclopropyl]-methylamine Hydrochloride [TKU-II-71],63.5
2,trans-(±)-[2-(3-Fluoro-phenyl)-cyclopropyl]-methylamine Hydrochloride [TKU-II-99],63.4
3,trans-(±)-[2-(4-Bromo-phenyl)-cyclopropyl]-methylamine Hydrochloride [TKU-II-44],1060
4,trans-(±)-[2-(4-Fluoro-phenyl)-cyclopropyl]-methylamine Hydrochloride [TKU-II-90],7.1
5,trans-(±)-[2-(4-Furan-2-yl-phenyl)-cyclopropyl]-methylamine Hydrochloride [TKU-II-81],281000
6,trans-(±)-[2-(4′-Chloro-biphenyl-2-yl)-cyclopropyl]-methylamine Hydrochloride [TKU-II-119],215
7,trans-(±)-[2-(4′-Chloro-biphenyl-3-yl)-cyclopropyl]-methylamine Hydrochloride [TKU-II-116],4000
8,trans-(±)-[2-(4′-Chloro-biphenyl-4-yl)-cyclopropyl]-methylamine Hydrochloride [TKU-II-82],199000
9,trans-(±)-[2-(4′-Trifluoromethyl-biphenyl-3-yl)-cyclopropyl]-methylamine Hydrochloride [TKU-II-117],277000

# Same assay, conditions: Ca++-flux, HEK-293 cells; NA = not active; Hydrochloride
row,Molecule,EC50 [nM]
1,trans-(±)-(2-Phenyl-cyclopropyl)-methylamine Hydrochloride [TKU-II-113],44.3

# Molecular target: T2, human 5-HT2B receptor (Homo sapiens, UniProt P41595)
# T2 construct: expressed in transfected cells; host or cells: HEK293 (ATCC CRL-1573), retroviral infection with pBabepuro-FLAG-h5-HT2BR, polyclonal line
# Assay: Functional activity by Ca++-flux (intracellular calcium mobilization), 5-HT2B
# Assay type: cell-based
# Details: not given
# T2 sequence (P41595 whole entry): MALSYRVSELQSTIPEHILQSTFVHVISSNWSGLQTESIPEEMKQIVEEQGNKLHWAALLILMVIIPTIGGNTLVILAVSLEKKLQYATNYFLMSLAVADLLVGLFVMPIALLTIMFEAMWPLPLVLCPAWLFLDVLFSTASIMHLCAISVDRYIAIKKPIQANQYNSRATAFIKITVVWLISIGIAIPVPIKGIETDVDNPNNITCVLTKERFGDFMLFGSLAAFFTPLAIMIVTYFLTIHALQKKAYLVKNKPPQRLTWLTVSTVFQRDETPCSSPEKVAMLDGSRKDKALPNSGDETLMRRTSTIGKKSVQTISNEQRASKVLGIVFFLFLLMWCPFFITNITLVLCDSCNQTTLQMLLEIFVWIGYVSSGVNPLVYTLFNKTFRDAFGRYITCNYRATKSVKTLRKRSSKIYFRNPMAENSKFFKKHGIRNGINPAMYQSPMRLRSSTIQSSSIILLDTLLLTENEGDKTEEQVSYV
row,Molecule,activity at 5-HT2B receptor
1,trans-(±)-[2-(4-Furan-2-yl-phenyl)-cyclopropyl]-methylamine Hydrochloride [TKU-II-81],no activity

# Same assay, conditions: Ca++-flux, HEK-293 cells; NA = not active; Hydrochloride; read-out: 5-HT2B human EC50
row,Molecule,EC50 [nM]
1,trans-(±)-(2-Phenyl-cyclopropyl)-methylamine Hydrochloride [TKU-II-113],35.3

# Same assay, conditions: Ca++-flux, HEK-293 cells; NA = not active; read-out: 5-HT2B human EC50
row,Molecule,EC50 [nM]
1,trans-(±)-[2-(3-Bromo-phenyl)-cyclopropyl]-methylamine Hydrochloride [TKU-II-71],19.2
2,trans-(±)-[2-(3-Fluoro-phenyl)-cyclopropyl]-methylamine Hydrochloride [TKU-II-99],4680
3,trans-(±)-[2-(4-Bromo-phenyl)-cyclopropyl]-methylamine Hydrochloride [TKU-II-44],495
4,trans-(±)-[2-(4′-Chloro-biphenyl-2-yl)-cyclopropyl]-methylamine Hydrochloride [TKU-II-119],63.7
5,trans-(±)-[2-(4′-Chloro-biphenyl-4-yl)-cyclopropyl]-methylamine Hydrochloride [TKU-II-82],3540

# Molecular target: T3, human 5-HT2C receptor (Homo sapiens, UniProt P28335)
# T3 construct: expressed in transfected cells; host or cells: HEK-293
# T3 sequence (P28335 33-458): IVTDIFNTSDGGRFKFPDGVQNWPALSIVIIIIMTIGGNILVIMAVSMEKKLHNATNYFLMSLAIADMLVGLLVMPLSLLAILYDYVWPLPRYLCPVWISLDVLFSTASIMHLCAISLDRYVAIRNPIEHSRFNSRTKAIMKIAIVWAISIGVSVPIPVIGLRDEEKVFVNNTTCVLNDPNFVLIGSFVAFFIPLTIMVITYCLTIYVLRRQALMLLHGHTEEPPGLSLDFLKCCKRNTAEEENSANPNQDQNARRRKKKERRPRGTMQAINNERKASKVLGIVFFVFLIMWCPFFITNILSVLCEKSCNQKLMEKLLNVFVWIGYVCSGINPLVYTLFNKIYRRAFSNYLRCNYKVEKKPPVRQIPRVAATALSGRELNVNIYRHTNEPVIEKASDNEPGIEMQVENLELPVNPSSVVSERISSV
# Assay: Functional activity by Ca++-flux (intracellular calcium mobilization), 5-HT2C
# Assay type: cell-based
# Details: not given
# Protocol: as §1, with “The results are summarized in Table 1 where EC50 for different receptors are given (nM) and the ratio of activities 2A/2C and 2B/2C are also given.” left out
# as §2, §3
# Compounds are resuspended in DMSO at a stock concentration of 2-15 mM and, for a typical agonist screen, are diluted in assay buffer to a final 2× concentration of 20 μM into drugs plates. Compounds are added in duplicate to cell plates using the FlexStation II as described to identify agonists, defined as having >10% of maximal 5-HT response. […] Generally, screens are performed twice with each determination being made in duplicate.
# as §4
Molecule,EC50 [nM],activity at 5-HT2C receptor
"N[C@@H]1C[C@H]1c1ccccc1 (relative stereo) [Tranylcypromine, trans-2-phenylcyclopropylamine, reference compound]",271,–
trans-(±)-[2-(3-Bromo-phenyl)-cyclopropyl]-methylamine Hydrochloride [TKU-II-71],–,partial agonist activity

# Same assay, conditions: 5-HT2C versus 5-HT2A
row,Molecule,selectivity over the 5-HT2A receptor
1,trans-(±)-[2-(4-Furan-2-yl-phenyl)-cyclopropyl]-methylamine Hydrochloride [TKU-II-81],good selectivity
2,trans-(±)-[2-(4′-Chloro-biphenyl-4-yl)-cyclopropyl]-methylamine Hydrochloride [TKU-II-82],good selectivity

# Same assay, conditions: Ca++-flux, HEK-293 cells; NA = not active; Hydrochloride; read-out: 5-HT2C human EC50
row,Molecule,EC50 [nM]
1,trans-(±)-(2-Phenyl-cyclopropyl)-methylamine Hydrochloride [TKU-II-113],4.5

# Same assay, conditions: Ca++-flux, HEK-293 cells; NA = not active; read-out: 5-HT2C human EC50
row,Molecule,EC50 [nM]
1,trans-(±)-[2-(3-Bromo-phenyl)-cyclopropyl]-methylamine Hydrochloride [TKU-II-71],6.5
2,trans-(±)-[2-(3-Fluoro-phenyl)-cyclopropyl]-methylamine Hydrochloride [TKU-II-99],63.2
3,trans-(±)-[2-(4-Bromo-phenyl)-cyclopropyl]-methylamine Hydrochloride [TKU-II-44],180
4,trans-(±)-[2-(4-Furan-2-yl-phenyl)-cyclopropyl]-methylamine Hydrochloride [TKU-II-81],82
5,trans-(±)-[2-(4′-Chloro-biphenyl-2-yl)-cyclopropyl]-methylamine Hydrochloride [TKU-II-119],2.54
6,trans-(±)-[2-(4′-Chloro-biphenyl-3-yl)-cyclopropyl]-methylamine Hydrochloride [TKU-II-116],124
7,trans-(±)-[2-(4′-Chloro-biphenyl-4-yl)-cyclopropyl]-methylamine Hydrochloride [TKU-II-82],429
8,trans-(±)-[2-(4′-Trifluoromethyl-biphenyl-3-yl)-cyclopropyl]-methylamine Hydrochloride [TKU-II-117],465

# Same assay, conditions: partial agonist activity
row,Molecule,Emax at the 5-HT2C receptor [%]
1,trans-(±)-[2-(3-Bromo-phenyl)-cyclopropyl]-methylamine Hydrochloride [TKU-II-71],75

# Same assay, conditions: ratio of EC50 5-HT2A / 5-HT2C
row,Molecule,2A/2C ratio
1,trans-(±)-[2-(3-Bromo-phenyl)-cyclopropyl]-methylamine Hydrochloride [TKU-II-71],9.8
2,trans-(±)-[2-(3-Fluoro-phenyl)-cyclopropyl]-methylamine Hydrochloride [TKU-II-99],1.0
3,trans-(±)-[2-(4-Bromo-phenyl)-cyclopropyl]-methylamine Hydrochloride [TKU-II-44],5.90
4,trans-(±)-[2-(4-Furan-2-yl-phenyl)-cyclopropyl]-methylamine Hydrochloride [TKU-II-81],3431
5,trans-(±)-[2-(4′-Chloro-biphenyl-2-yl)-cyclopropyl]-methylamine Hydrochloride [TKU-II-119],85
6,trans-(±)-[2-(4′-Chloro-biphenyl-3-yl)-cyclopropyl]-methylamine Hydrochloride [TKU-II-116],32.3
7,trans-(±)-[2-(4′-Chloro-biphenyl-4-yl)-cyclopropyl]-methylamine Hydrochloride [TKU-II-82],464
8,trans-(±)-[2-(4′-Trifluoromethyl-biphenyl-3-yl)-cyclopropyl]-methylamine Hydrochloride [TKU-II-117],596

# Same assay, conditions: ratio of EC50 5-HT2A / 5-HT2C; Hydrochloride
row,Molecule,2A/2C ratio
1,trans-(±)-(2-Phenyl-cyclopropyl)-methylamine Hydrochloride [TKU-II-113],9.84

# Same assay, conditions: ratio of EC50 5-HT2B / 5-HT2C
row,Molecule,2B/2C ratio
1,trans-(±)-[2-(3-Bromo-phenyl)-cyclopropyl]-methylamine Hydrochloride [TKU-II-71],2.9
2,trans-(±)-[2-(3-Fluoro-phenyl)-cyclopropyl]-methylamine Hydrochloride [TKU-II-99],74
3,trans-(±)-[2-(4-Bromo-phenyl)-cyclopropyl]-methylamine Hydrochloride [TKU-II-44],2.75
4,trans-(±)-[2-(4′-Chloro-biphenyl-2-yl)-cyclopropyl]-methylamine Hydrochloride [TKU-II-119],25
5,trans-(±)-[2-(4′-Chloro-biphenyl-4-yl)-cyclopropyl]-methylamine Hydrochloride [TKU-II-82],8.3

# Same assay, conditions: ratio of EC50 5-HT2B / 5-HT2C; Hydrochloride
row,Molecule,2B/2C ratio
1,trans-(±)-(2-Phenyl-cyclopropyl)-methylamine Hydrochloride [TKU-II-113],7.84
